Test results reported in patent publication EP1003557B1, “NEW SALTS WITH BENEFICIAL ORGANOLEPTIC PROPERTIES” (CHINOIN Gyogyszer és Vegyészeti Termékek Gyára RT., priority 1997, dated 1999).
Structures can show the parent of a compound that is named as a salt.

system: Human U937 (cell line) PDE-IV enzime; assay: Cyclic nucleotide phosphodiesterase (PDE-IV) enzyme inhibition, two-step [3H]cAMP procedure; format: biochemical; details: [3H]cAMP substrate, 30 °C for 30 min, Tris buffer pH=7.6
Procedure: Cyclic nucleotide phosphodiesterase activity is measured by a two-step procedure. […] The reaction is initiated by addition of the substrate. […] After cooling the tubes, 50µl of Crotalux atrox (0.5 mg/ml dest. water) is added and the samples are incubated and shaked for 30 min at 37°C. […] The mixture of 500 µl supernatant and 5 ml of liquid scintillation cocktail is measured to determine the amount of formed ^3H adenosine.

Row | IC50 [µM] | Compound
1 | 1 | CCOc1ccc(C=C2NCCc3cc(OCC)c(OCC)cc32)cc1OCC [Example 2, drotaverin cyclamate]
2 | 4.7 | CCOc1ccc(/C=C2\NCCc3cc(OCC)c(OCC)cc32)cc1OCC [drotaverin hydrochloride, reference compound]

Row | Compound | IC50 [µM]
3 | drotaverin-saccharimide ethanolate [Example 1] | 3.8
